According to patent US20030106108A1, “Genetic transformation method for zoysiagrass” (priority 2001, published 2003):

Experiments:
zoysiagrass type 1 calli = test: Growth of type 1 calli on MS media with combinations of 2,4-D and BA; assay type: cell-based, Zoysia japonica Steud.; conditions: for Callus fresh weight, Total / Callus fresh weight, Type 1 / Callus fresh weight, Type 2 / Callus fresh weight, Type 3 / Callus fresh weight, Type 4: BA 0 mg/l, 5 weeks, dark, 28° C., mean of ten calli
Method: To investigate morphological changes occurring on type 1 calli subculturing, type 1 calli were transferred to a MS medium containing various hormonal combinations of 2,4-D (1, 2, 4, and 8 mg/liter) and BA (0, 0.01, and 0.1 mg/liter) in the dark. After five weeks of subculturing in the dark, four callus types were observed. Each callus type was weighed, and the weight ratios were calculated. Calli of types 2, 3, and 4 were also examined in an identical way as with type 1 callus.
Ten mg of type 1 calli was grown on MS media with various combinations of 2,4-D and BA and 2 g/liter gelrite for 5 weeks in the dark at 28° C. Each value represents a mean calculated from ten calli. Callus morphologies were rated by; 1=whitish-yellow, compact and non-friable, 2=white, compact and friable, 3=yellow, compact and very friable, 4=translucent, soft and watery.

zoysiagrass calli = assay type: cell-based, Zoysia japonica Steud.
Method: Acetosyringone was prepared by dissolving an appropriate amount of powder in dimethyl sulfoxide at a concentration of 100 mg/ml and stored at 4° C. in the dark. It was added to the sterile medium to an appropriate final concentration whenever required. The calli proliferated on the MSCG4 medium were immersed in the Agrobacterial cell suspension for 1 min. After dehydration on sterile filter paper, the calli were cultivated on a co-cultivation medium (MSAS) with 4 mg/liter 2,4-D at 26±1° C. in the dark for 15 days. After co-cultivation, the calli were thoroughly washed by vortexing in sterile double-distilled water supplemented with a surfactant (0.02% pluronic F68) until the washing solution becomes transparent and finally washed in sterile double-distilled water containing 1000 mg/liter calbenicillin and 0.02% surfactant. After washing, an half of the calli were used for GUS activity assay by the method described by Schenk et al. (1998).
Several factors were tested to optimize transformation efficiency. (1) For comparison of different callus types on invasiveness, types 1, 2 and 3 calli were co-cultivated on 2,4-D-free MSAS media for 6 days; (2) For comparison of co-cultivation periods, calli were co-cultivated for 3, 6, 9, 12, 15, 18, 21, 24 and 27 days; (3) For examination of media components, different amounts of 2,4-D (0, 1, 2, 4, and 8 mg/liter), CaCl2 (0, 11, 110, 220, and 440 mg/liter), and acetosyringone (0, 10, 50, 100, and 200 mg/liter) were added to the MSAS media.

Agrobacterial cell = test: Agrobacterium elimination in shoot induction media; assay type: cell-based, Agrobacterium tumefaciens; conditions: 125 mg/liter calbenicillin-containing media
Method: The optimized conditions for the A. tumefaciens infection of zoysiagrass calli included the use of type 3 calli as donor, a co-cultivation period of 9 days, the exclusion of 2,4-D and CaCl2 from the media, and the use of 100 mg/l acetosyringone. After pGPTV-HB co-cultivation, calli were transferred to filter paper-laid MSCG media and cultured for 2-4 weeks in the dark. The calli were then transferred to filter paper-laid MSSI medium for shoot induction. Various concentrations (125, 250, and 500 mg/liter) of calbenicillin were added to the shoot induction medium. Induced shoots were subsequently transferred to the MSRS medium for rooting and selection for 4 weeks. Five mg/liter bialaphos and 10 mg/liter hygromycin were used for selection of bialaphos- and hygromycin-resistant plantlets. The rooting plants on the selection medium were transferred to the MSPG medium without antibiotics and bialaphos and further grown. The fully grown plants were then transferred to a pot containing soil and grown in an environmentally controlled growth chamber set at 30° C., 80% relative humidity and 18-hour photoperiod with 30 μmolm^−2s^−1 irradiance provided by cool white fluorescent tubes. When the roots developed enough, pots were transferred to green house. […]

## O=C(O)COc1ccc(Cl)cc1Cl [2,4-D, 2,4-dichlorophenoxyacetic acid]
Zoysiagrass type 1 calli; 2,4-D 1 mg/l
  Callus fresh weight, Total: 81.5 mg
  Callus fresh weight, Type 1: 45.8 mg
  Callus fresh weight, Type 2: 22.3 mg
  Callus fresh weight, Type 3: 0 mg
  Callus fresh weight, Type 4: 13.4 mg
Zoysiagrass type 1 calli; 2,4-D 2 mg/l
  Callus fresh weight, Total: 37.0 mg
  Callus fresh weight, Type 1: 18.8 mg
  Callus fresh weight, Type 2: 2.3 mg
  Callus fresh weight, Type 3: 1.5 mg
  Callus fresh weight, Type 4: 14.5 mg
Zoysiagrass type 1 calli; 2,4-D 4 mg/l
  Callus fresh weight, Total: 29.6 mg
  Callus fresh weight, Type 1: 11.4 mg
  Callus fresh weight, Type 2: 0 mg
  Callus fresh weight, Type 3: 0.9 mg
  Callus fresh weight, Type 4: 17.2 mg
Zoysiagrass calli; 2,4-D 0, 1, 2, 4, 8 mg/liter in co-cultivation medium, 9 days of co-cultivation
  Number of GUS blue spots per 1 g fresh weight of calli, effect of 2,4-D: decreased as the 2,4-D concentration increased

## c1ccc(CNc2ncnc3[nH]cnc23)cc1 [BA]
Zoysiagrass type 1 calli; addition of 0.01 mg/liter BA in combination with 2,4-D
  Reduction of incidence rate of non-regenerable type 4 calli: 1.8-3.4 times

## [Ca+2].[Cl-].[Cl-] [CaCl2]
Zoysiagrass calli; CaCl2 0, 11, 110, 220, 440 mg/liter in co-cultivation medium
  Number of GUS blue spots per 1 g fresh weight calli, effect of CaCl2: decreased as the CaCl2 concentration increased

## COc1cc(C(C)=O)cc(OC)c1O [acetosyringone]
Zoysiagrass calli; 50 mg/liter acetosyringone in co-cultivation medium vs acetosyringone-free medium
  Increase of the number of blue spots (factor): 9
Zoysiagrass calli; 30˜70 mg/liter acetosyringone during co-cultivation
  Transformation efficiency: greatly enhanced
Zoysiagrass calli; higher than 100 mg/liter acetosyringone
  Effect on the transformation: negative effect

## CC1(C)S[C@@H]2[C@H](NC(=O)C(C(=O)O)c3ccccc3)C(=O)N2[C@H]1C(=O)O (stereo partly shown) [calbenicillin]
Agrobacterial cell
  Agrobacterial cell contamination of media: sometimes observed
